The values that follow come from ChEMBL document CHEMBL5154705, “Discovery and mechanistic study of thiazole-4-acylsulfonamide derivatives as potent and orally active ChemR23 inhibitors with a long-acting effect in cynomolgus monkeys” (Bioorg Med Chem, 2022).

Data set [1] addresses T1, Chemerin-like receptor 1 (Homo sapiens) (UniProt Q99788).
T1 sequence (whole entry): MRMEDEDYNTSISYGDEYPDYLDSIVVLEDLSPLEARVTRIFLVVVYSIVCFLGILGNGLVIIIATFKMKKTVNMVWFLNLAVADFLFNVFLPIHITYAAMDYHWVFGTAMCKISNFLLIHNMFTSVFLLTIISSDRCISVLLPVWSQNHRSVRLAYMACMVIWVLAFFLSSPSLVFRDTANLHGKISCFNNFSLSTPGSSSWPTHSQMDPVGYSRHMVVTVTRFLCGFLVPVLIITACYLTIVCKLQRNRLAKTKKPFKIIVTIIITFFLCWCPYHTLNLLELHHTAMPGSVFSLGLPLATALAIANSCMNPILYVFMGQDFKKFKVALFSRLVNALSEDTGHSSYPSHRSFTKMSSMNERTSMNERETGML
Briefly: Binding affinity to ChemR23 (unknown origin) expressed in HEK293T cells at 40 to 1000 nM by flow cytometric analysis. Format: cell-based. The note with it: dose 40-1000 nM, DDE = dose-dependent effect.

Data set [2] can be described thus: AUC(0 to infinity) in cynomolgus monkey at 0.3 to 1 mg/kg, po. Format: ADME, organism-based, Macaca fascicularis. The arrangement: route po. The note with it: in vivo, dose 0.3-1 mg/kg.
Data set [3] can be described thus: Tmax in cynomolgus monkey at 0.3 to 1 mg/kg, po. Type of data set: ADME, organism-based, Macaca fascicularis. To be noted: in vivo, dose 0.3-1 mg/kg.
Data set [4] can be described thus: Drug concentration in cynomolgus monkey plasma at 0.3 mg/kg, po after 8 hrs. Format: ADME, organism-based, Macaca fascicularis.
Data set [5] in a line: Drug concentration in plasma of cynomolgus monkey at 30 mg/kg, po after 6 hrs. Type of data set: ADME, organism-based, Macaca fascicularis.
Data set [6] in a line: Tmax in cynomolgus monkey at 0.3 mg/kg, po. The note with it: in vivo. Format: ADME, organism-based, Macaca fascicularis.
The nature of data set [7]: Cmax in cynomolgus monkey at 0.3 to 1 mg/kg, po. Type of data set: ADME, organism-based, Macaca fascicularis. Further details: route po. To be noted: in vivo, dose 0.3-1 mg/kg.
A short description of data set [8]: Cmax in cynomolgus monkey at 0.3 mg/kg, po. Format: ADME, organism-based, Macaca fascicularis. Further details: dose 0.3 mg/kg, route po. To be noted: in vivo.
A short description of data set [9]: Drug concentration in plasma of cynomolgus monkey at 30 mg/kg, po after 8 hrs. Format: ADME, organism-based, Macaca fascicularis.
A short description of data set [10]: AUC(0 to infinity) in cynomolgus monkey at 0.3 mg/kg, po. Type of data set: ADME, organism-based, Macaca fascicularis. The arrangement: time infinity, dose 0.3 mg/kg, route po. To be noted: in vivo.
Data set [11] is described as follows: Half life in cynomolgus monkey at 0.3 mg/kg, po. Type of data set: ADME, organism-based, Macaca fascicularis. To be noted: in vivo.
A short description of data set [12]: Half life in cynomolgus monkey at 0.3 to 1 mg/kg, po. Type of data set: ADME, organism-based, Macaca fascicularis. The note with it: in vivo, dose 0.3-1 mg/kg.
Data set [13] is described as follows: MRT in cynomolgus monkey at 0.3 to 1 mg/kg, po. Type of data set: ADME, organism-based, Macaca fascicularis. The note with it: in vivo, dose 0.3-1 mg/kg.
Data set [14] can be described thus: Drug concentration in plasma of cynomolgus monkey at 30 mg/kg, po after 4 hrs. Type of data set: ADME, organism-based, Macaca fascicularis.
A short description of data set [15]: MRT in cynomolgus monkey at 0.3 mg/kg, po. The note with it: in vivo. Format: ADME, organism-based, Macaca fascicularis.
Data set [16] is described as follows: Drug concentration in cynomolgus monkey plasma at 1 mg/kg, po after 8 hrs. Format: ADME, organism-based, Macaca fascicularis.
In data set [17] the target is T2, Chemerin-like receptor 1 (Homo sapiens, UniProt Q99788).
T2 sequence (Q99788 whole entry): T1 sequence (whole entry)
Briefly: Inhibition of human ChemR23 expressed in CAL-1 cells assessed as receptor internalization. Format: functional, cell-based, CAL1.

The target of data set [18] is T2, Chemerin-like receptor 1. Briefly: Inhibition of human ChemR23 expressed in CAL-1 cells assessed as reduction in chemerin-induced calcium signaling. Type of data set: functional, cell-based, CAL1.
A short description of data set [19]: MRT in cynomolgus monkey at 1 mg/kg, po. Format: ADME, organism-based, Macaca fascicularis. The note with it: in vivo.
Data set [20] can be described thus: Tmax in cynomolgus monkey at 1 mg/kg, po. Format: ADME, organism-based, Macaca fascicularis. To be noted: in vivo.
A short description of data set [21]: AUC(0 to infinity) in cynomolgus monkey at 1 mg/kg, po. Type of data set: ADME, organism-based, Macaca fascicularis. The arrangement: time infinity, dose 1 mg/kg, route po. The note with it: in vivo.
Data set [22] is described as follows: Half life in cynomolgus monkey at 1 mg/kg, po. The note with it: in vivo. Type of data set: ADME, organism-based, Macaca fascicularis.
Data set [23] in a line: Cmax in cynomolgus monkey at 1 mg/kg, po. Type of data set: ADME, organism-based, Macaca fascicularis. Further details: dose 1 mg/kg, route po. The note with it: in vivo.
For data set [24], the target named is T1, Chemerin-like receptor 1 (Homo sapiens). The note with it: CAL1.

As a reminder, the AUC(0-inf) is total exposure, with the tail of the curve extrapolated. Broadly, the Tmax is the time from dosing to the highest level. As usually defined, the Cmax is the peak of the concentration-time curve. The term half-life denotes the time in which the quantity being followed falls by half. In general, MRT refers to the average time that molecules of a dose stay in the body. One may read the EC50 as the concentration giving half of the maximal effect. The term IC50 denotes the concentration at which inhibition is half-maximal. By IC80 is commonly meant the point of the concentration-response curve where the effect stands at 80%.

Molecules are shown by their SMILES.

With `C[C@H](c1ccc(-c2cc(Cl)ccc2C(=O)NCCOCCOCCOCCOCCOCCOCCn2nnc3c2-c2ccccc2N(C(=O)CCNC(=O)CCOCCOCCOCCOCCNC(=O)c2ccc(C(=O)[O-])c(-c4c5ccc(=[N+](C)C)cc-5oc5cc(N(C)C)ccc45)c2)Cc2ccccc2-3)cc1)N(CC1CC1)c1nc(C(=O)NS(=O)(=O)C2CC2)c(C2CC2)s1`, in data set [1], the Activity entry was “Dde”.

As for `Cc1ccc(-c2nc(=O)o[nH]2)c(-c2ccc([C@@H](C)N(CC3CC3)c3nc(C(=O)NS(=O)(=O)C4CC4)c(C4CC4)s3)cc2)c1`, the AUC(0-inf) came out at 53700 ng·h/mL in [2] and 10200 ng·h/mL in [10]. In addition, the values for the time of peak concentration (Tmax) in data set [3] and in data set [6] were 2.7 h and 3.3 h, respectively. For the same molecule, the values for the concentration at 8 h in [4], in data set [9] and in data set [16] were 403 ng/mL, 177 µM and 2580 ng/mL, respectively. Moreover, the concentration at 6 h in [5] is 233 µM. Further, the maximum concentration (Cmax) in [7] came to 6960 ng/mL; in data set [8], 1370 ng/mL. For the same molecule, the half-life was 198 min in data set [11] and 186 min in data set [12]. The values for the MRT in data set [13] and in data set [15] were 6 h and 5.4 h, respectively. The molecule also displayed a concentration at 4 h in [14] of 332 µM.

Regarding `C[C@H](c1ccc(-c2cc(Cl)ccc2C(=O)NCCOCCOCCOCCOCCOCCOCCOCCOCCOCCOCCOCCOCCOCCOCCOCCOCCOCCOCCOCOCCOCCOCCOCCN=[N+]=[N-])cc1)N(CC1CC1)c1nc(C(=O)NS(=O)(=O)C2CC2)c(C2CC2)s1`, the half-maximal effective concentration (EC50) on Chemerin-like receptor 1 [17] was 380 nM. For the same molecule, at Chemerin-like receptor 1 [18], the half-maximal inhibitory concentration (IC50) is 100 nM.

In the case of `C[C@H](c1ccc(-c2cc(Cl)ccc2C(=O)NCCOCCOCCOCCOCCOCCOCCN=[N+]=[N-])cc1)N(CC1CC1)c1nc(C(=O)NS(=O)(=O)C2CC2)c(C2CC2)s1`, the EC50 on Chemerin-like receptor 1 [17] stood at 22 nM. Also, the half-inhibitory concentration (IC50) at Chemerin-like receptor 1 [18] amounted to 12 nM.

As to `CONC(=O)c1ccc(C)cc1-c1ccc([C@@H](C)N(CC2CC2)c2nc(C(=O)NS(=O)(=O)C3CC3)c(C3CC3)s2)cc1`, the mean residence time MRT in data set [19] is 5.9 h. Further, the time to peak (Tmax) in data set [20] was found to be 3.3 h. In data set [21], the AUC(0-inf) amounted to 24000 ng·h/mL. In addition, the half-life in data set [22] is 174 min. In data set [23], the peak concentration (Cmax) amounted to 3480 ng/mL. Besides, in [24], the IC80 came to 38 nM. The concentration at 8 h in data set [16] amounted to 1010 ng/mL.
